Measured values taken from US11207315B2, “Emetine compounds for treatment and prevention of flavivirus infection” (FLORIDA STATE UNIVERSITY RESEARCH FOUNDATION, INC., priority 2017, dated 2021).
Where a name gives a salt, the structure may show the parent alone.

Key:
[1] = test system: ZIKV; test: liver viral load (NS1 gene expression by real time PCR) in ZIKV-challenged mice; assay type: in vivo, Ifnar1−/− mice; conditions: until day 3
Description: FIG. 10. Zika virus load estimation in mouse liver following emetine treatment before and after Zika virus challenge. From 30 mg of liver tissue stored in RNAlater (Qiagen), total RNA was isolated using RNeasy mini kit (Qiagen) and converted to cDNA. Viral NS1 gene expression was estimated by real time PC Relative expression of the NS1 gene was calculated using ZIKV-NS1 specific primers and GAPDH primers. Statistical analysis was done using the Mann-Whitney ANOVA. *p<0.05, **p<0.01, ***p<0.001.
(§1) Ifnar1−/− mice (8 wk old, male and female) were dosed with Emetine 2 mg/kg/day i.p. starting at 24 hours prior (n=8) or 24 after (n=7) the challenging with ZIKV on day 0. Drug was continued till day 3. Mice were euthanized, and blood and liver tissue were collected.

[2] = test system: ZIKV; test: serum viral load (ZIKV NS1 ELISA) in ZIKV-challenged mice; assay type: in vivo, Ifnar1−/− mice; conditions: for reduction in serum viral load: until day 3; for decrease in serum viral load: serum at day 3
Description: (§2) FIG. 8. Zika virus load estimation in mouse serum following emetine treatment. Serum was separated. NS1 protein was estimated using ZIKV-NS1 ELISA kit (Biofront, Tallahassee, Fla.) as per the manufacturer's protocol. Briefly, 5 μl of the serum was lysed with equal volume of lysis buffer for 30 min at 37° C. A 1:900 dilution of the serum was done using sample dilution buffer and added to ELISA plates. Reactions were quantified using HRP conjugated antibody and TMB. Absorbance was taken at 450 nm after adding the stop solution. Statistical analysis was done using the Mann-Whitney ANOVA. *p<0.05, **p<0.01, ***p<0.001.
as §2, with “9.” for “8.”, “treatment before and after Zika virus challenge.” for “treatment.”, “1:300” for “1:900”
NS1 ELISA. The anti-ZIKV NS1 ELISA (ZKV-NS1-EK) was obtained from BioFront Technologies (Tallahassee, Fla.) and used according to the manufacturer's protocol.
Ifnar1−/− mice (7-8 wk old, male and female, Jackson Lab) were dosed (i.p) with Emetine 1 mg/kg/day (n=6), 2 mg/kg/day (n=8) or saline (Vehicle control, n=8) starting at 24 hours prior to challenging with ZIKV (10^3, Focal forming unit (FFU)) on day 0. Drug was continued until day 6. At peak viremia (day 3), a blood sample was taken from the tail vein and serum was separated and stored at −70° C. till further analysis. The body weight were monitored twice daily until day 10. Mice reaching humane end points were euthanized. With emetine treatment, there was a 30% and 37% decrease in serum viral load with 1 mg/kg and 2 mg/kg treatment, respectively.
as §1

[3] = test system: PRVABC59-ZIKV; test: time of addition: drug added 1 hour prior to or 4 hours post infection, NS1 Western blot and ZIKV-ENV IF staining; assay type: cell-based, Zika virus; conditions: added before or after infection; 1 μM
Description: (§3) IC50 for each strain is ≤˜10 nM.
Drug (emetine) was added at 1 μM either 1-hour prior to infection with PRVABC59-ZIKV, or 4-hours post infection with PRVABC59-ZIKV.
FIGS. 6A-B show IF staining of ZIKV-ENV Vero cells after a 24-hour infection. Drug was added at 1 μM either 1-hour prior to infection with PRVABC59-ZIKV, or 4-hours post infection with PRVABC59-ZIKV.
Immunocytochemistry. Cells were fixed with 4% paraformaldehyde (Sigma) for 15 min at room temperature. Samples were permeabilized and blocked with 0.25% Triton X-100 (Sigma) and 10% donkey or goat serum in PBS for 20 min as previously described (Chiang et al., 2011; [41]; Yoon et al., 2014). Samples were then incubated with primary antibodies at 4° C. overnight, followed by multiple PBST washes and incubation with secondary antibodies for 1 h at room temperature. Slides were mounted using VECTASHIELD with DAPI (Vectorlabs, Burlingame, Calif.). The following primary antibodies were used: anti-flavivirus group antigen (clone D1-4G2-4-15; mouse; 1:500; Millipore), and anti-cleaved caspase-3 ([…]; Rabbit; 1:500; Cell Signaling Technology). Antibodies were prepared in PBS containing 0.25% Triton X-100 and 10% donkey serum. Images were taken by Zeiss LSM 700 and 880 confocal microscopes, Olympus BX61, or Zeiss Axiovert 200M microscope.
Western blot. […]

[4] = test system: ZIKV (three strains); test: immunofluorescence staining and quantification of ZIKV positive SNB-19 cells; assay type: cell-based, Zika virus; conditions: one of three ZIKV strains; emetine at 0.01, 0.1, or 1 μM
Description: Immunofluorescence (IF) staining (FIG. 2A) and quantification (FIG. 2B) of ZIKV positive SNB-19 cells following infection with one of three ZIKV strains and treatment with emetine at 0.01, 0.1, or 1 μM. Emetine is effective against all three ZIKV strains tested.
Preparation of ZIKV and cell infection. The MR766-ZIKV stock with the titer of 1×10^5 Tissue Culture Infective Dose (TCID)/ml in the form of culture fluid from an infected rhesus Macaca cell line LLC-MK2, was originally obtained from ZeptoMetrix (Buffalo, N.Y.). The FSS13025-ZIKV strain was obtained from Drs. Robert Tesh and Pei-Yong Shi (University of Texas Medical Branch, Galveston, Tex.). The PRVABC59 strain was obtained from ATCC (Manassas, Va.). Original viral stocks were then amplified in Aedes albopictus clone C6/36 cells. Briefly, C6/36 cells were inoculated with viral inoculum for one hour at 28° C. in low volume of media (3 ml per T-75 flask), with rocking every 15 minutes, before addition of 17 ml media. Viral inoculated cells were incubated at 28° C. for 6-7 days before harvesting of supernatant. C6/36-amplified ZIKV titer was determined by infecting Vero cells for 48 hours with a methyl-cellulose overlay and analyzed for focus-forming units per mL (FFU/ml). In mock infections, an equal volume of spent uninfected C6/36 culture medium was used. […]

[5] = test system: HEK293 cells; test: Toxicity IC50 (cell-killing activity) in the compound screen; assay type: cell-based, Human
[6] = test system: ZIKV (three strains); test: infectious ZIKV production from SNB-19 cells, focus-forming unit assay on Vero cells; assay type: cell-based; conditions: Zika virus, for each of three ZIKV strains
Description: FIGS. 1A-B. Antiviral activity of emetine against ZIKV infection. ZIKV production from human glioblastoma SNB-19 cells treated with increasing concentrations of emetine. 24 hours post-infection, supernatants from SNB-19 cells were titrated onto naïve Vero cells plated in a monolayer in 96-well plates for infectious focus-forming unit assay as previously described and focus forming units quantified.
as §3
Cell line cultures. The glioblastoma SNB-19 cell line (part of the National Cancer Institute 60 human tumor cell line) was a gift from Dr. David Meckes (Florida State University, Tallahassee, Fla.). SNB-19 cells were maintained at 37° C. in 5% CO2 in […], 1× penicillin/streptomycin, and 10% fetal bovine serum (Invitrogen). The Aedes albopictus C6/36 cell line (ATCC) was maintained at 28° C. in 5% CO2.
Preparation of ZIKV and cell infection. The MR766-ZIKV stock with the titer of 1×10^5 Tissue Culture Infective Dose (TCID)/ml in the form of culture fluid from an infected rhesus Macaca cell line LLC-MK2, was originally obtained from ZeptoMetrix (Buffalo, N.Y.). The FSS13025-ZIKV strain was obtained from Drs. Robert Tesh and Pei-Yong Shi (University of Texas Medical Branch, Galveston, Tex.). […] C6/36-amplified ZIKV titer was determined by infecting Vero cells for 48 hours with a methyl-cellulose overlay and analyzed for focus-forming units per mL (FFU/ml). […]

[7] = 2 mg/kg i.p. starting 24 hours after ZIKV challenge
[8] = 2 mg/kg i.p. starting 24 hours prior to ZIKV challenge

Row | SMILES | reduction in liver viral load [1, 7] | reduction in liver viral load [1, 8] | reduction in serum viral load [2, 7] | reduction in serum viral load [2, 8] | effect on ZIKV infection by time of addition [3] | ZIKV positive SNB-19 cells (IF) [4] | Tox IC50 [5] | decrease in serum viral load ([2]; 1 mg/kg/day i.p. from 24 hours prior to challenge) | decrease in serum viral load ([2]; 2 mg/kg/day i.p. from 24 hours prior to challenge) | IC50 [6]
1 | CC[C@H]1CN2CCc3cc(OC)c(OC)cc3[C@@H]2C[C@@H]1C[C@H]1NCCc2cc(OC)c(OC)cc21 [emetine dihydrochloride] | 35% | 42% | 32% | 55% | – | – | – | – | – | –
2 | CC[C@H]1CN2CCc3cc(OC)c(OC)cc3[C@@H]2C[C@@H]1C[C@H]1NCCc2cc(OC)c(OC)cc21 [Emetine, emetine] | – | – | – | – | effective against ZIKV infection when added before or after infection | reduces ZIKV infection in a dosage dependent manner | No | 30% | 37% | ≤ 0.01 µM
